Measurements from patent US11111264B2, “Morphic forms of 4-amino-7-(3,4-dihydroxy-5-(hydroxymethyl)tetrahydrofuran-2-yl)-2-methyl-7H-pyrrolo[2,3-d]pyrimidine-5-carboxamide and uses thereof” (Chimerix, Inc., priority 2017, dated 2021).
Values after ≈ are worked out from the molar mass of the structure shown.

Experiments:
Format in all cases: physicochemical
[1] = Approximate solubility of Compound 1 in various solvents (stepwise solvent addition); details: thermodynamic from solid, read-out: Solubility [S, mg/mL]
Experimental: To determine approximate solubility of Compound 1, solvent was added in steps to the solid material (about 20 to 100 mg). The solubility values were rough approximations. Therefore, these values were used solely for the preliminary design of subsequent crystallization experiments.

[2] = Exact solubility of Compound 1 Form A in selected solvent systems (1 day suspension, HPLC); details: for solubility at 1 day: thermodynamic from solid
Experimental: (§1) The exact solubilities of Compound 1 Form A in selected solvent systems were determined at 24° C. and 60° C. About 100 mg of Compound 1 Form A were suspended in 2.0 mL of solvent and stirred using a magnetic stirrer bar for 1 day at 24° C. or 60° C., followed by filter centrifugation at the corresponding temperature. The concentration of Compound 1 was then determined by HPLC.
as §1, with “solubilities of Form A” for “solubilities of Compound 1 Form A”, “Compound 1 were suspended” for “Compound 1 Form A were suspended”

[3] = Chemical stability when stirring suspension at 75° C. (Experiment No. 26); details: 1-propanol/0.01 M NaOH aq 1:2 v/v; stirring at 75° C. overnight
Experimental: Experiment No. 26 tested seeding behavior at 75° C. at the 16 g scale as well as chemical stability when stirring suspensions at 75° C. for extended times.
16.02 g of Compound 1 were placed in a 300 mL glass reactor (diameter 70 mm) and 200 mL of 1-propanol/0.01 M NaOH aq 1:2 v/v were added at room temperature. The suspension was stirred using a two-bladed impeller (diameter 40 mm; 500 rpm) and heated to 90° C. in 30 minutes. After stirring at 90° C. for about 15 minutes (500 rpm) the solution formed was cooled to 75° C. with a cooling rate of 15K/hour and stirred at 75° C. for 10 minutes.
At 75° C. the solution was seeded with a suspension of 158 mg of crude Compound 1 in 5 mL of water. The weak suspension formed was stirred at 75° C. overnight followed by hot filtration (sintered glass funnel, porosity P4, diameter 65 mm; the suspension was easy to filter). The glass reactor was flushed with 20 mL of water and the washing suspension was also filtered. The filter cake was again washed with 20 mL of water and air dried for 20 minutes by drawing ambient air through the glass funnel.

Structure (SMILES): Cc1nc(N)c2c(C(N)=O)cn([C@@H]3O[C@H](CO)[C@@H](O)[C@H]3O)c2n1 [Compound 1, 4-amino-7-((2R,3R,4S,5R)-3,4-dihydroxy-5-(hydroxymethyl)tetrahydrofuran-2-yl)-2-methyl-7H-pyrrolo[2,3-d]pyrimidine-5-carboxamide]
- solubility ([1]; aqueous buffer, NaOH aq 0.1M, 60° C.): ~9 mg/mL (≈ 27.8 mM)
- solubility ([1]; aqueous buffer, NaOH aq 0.1M, RT): ~3 mg/mL (≈ 9.28 mM)
- solubility ([1]; aqueous buffer, NaOH aq 0.5M, 60° C.): ~38 mg/mL (≈ 118 mM)
- solubility ([1]; aqueous buffer, NaOH aq 0.5M, RT): ~16 mg/mL (≈ 49.5 mM)
- solubility ([1]; aqueous buffer, NaOH aq 1M, 60° C.): ~95 mg/mL (≈ 294 mM)
- solubility ([1]; aqueous buffer, NaOH aq 1M, RT): ~60 mg/mL (≈ 186 mM)
- solubility ([1]; aqueous with cosolvent or surfactant or cyclodextrin, 1-Propanol/water 1:2 v/v, RT): ~6 mg/mL (≈ 18.6 mM)
- solubility ([1]; aqueous with cosolvent or surfactant or cyclodextrin, 1-Propanol/water 1:2 v/v, at 80° C.): ~51 mg/mL (≈ 158 mM)
- solubility ([1]; aqueous with cosolvent or surfactant or cyclodextrin, 1-Propanol/water 2:1 v/v, RT): ~7 mg/mL (≈ 21.7 mM)
- solubility ([1]; aqueous with cosolvent or surfactant or cyclodextrin, 2-Propanol/NaOH aq 0.1M 1:1 v/v, RT): ~16 mg/mL (≈ 49.5 mM)
- solubility ([1]; aqueous with cosolvent or surfactant or cyclodextrin, 2-Propanol/water 1:1 v/v, RT): ~7 mg/mL (≈ 21.7 mM)
- solubility ([1]; aqueous with cosolvent or surfactant or cyclodextrin, 2-Propanol/water 1:2 v/v, RT): ~5 mg/mL (≈ 15.5 mM)
- solubility ([1]; aqueous with cosolvent or surfactant or cyclodextrin, 2-Propanol/water 1:2 v/v, at 70° C.): ~31 mg/mL (≈ 95.9 mM)
- solubility ([1]; aqueous with cosolvent or surfactant or cyclodextrin, 2-Propanol/water 2:1 v/v, RT): ~6 mg/mL (≈ 18.6 mM)
- solubility ([1]; aqueous with cosolvent or surfactant or cyclodextrin, DMSO/NaOH aq 0.1M 1:1 v/v, RT): ~20 mg/mL (≈ 61.9 mM)
- solubility ([1]; aqueous with cosolvent or surfactant or cyclodextrin, DMSO/water 1:1 v/v, RT): ~8 mg/mL (≈ 24.7 mM)
- solubility ([1]; aqueous with cosolvent or surfactant or cyclodextrin, DMSO/water 1:1 v/v, at 80° C.): ~45 mg/mL (≈ 139 mM)
- solubility ([1]; aqueous with cosolvent or surfactant or cyclodextrin, DMSO/water 1:2 v/v, RT): ~3 mg/mL (≈ 9.28 mM)
- solubility ([1]; aqueous with cosolvent or surfactant or cyclodextrin, THF/water 1:1 v/v, RT): ~22 mg/mL (≈ 68 mM)
- solubility ([1]; aqueous with cosolvent or surfactant or cyclodextrin, THF/water 1:4 v/v, RT): ~6 mg/mL (≈ 18.6 mM)
- solubility ([1]; aqueous with cosolvent or surfactant or cyclodextrin, THF/water 4:1 v/v, RT): ~15 mg/mL (≈ 46.4 mM)
- solubility ([1]; organic solvent or mixture, DMSO, RT): ~500 mg/mL (≈ 1550 mM)
- solubility ([1]; organic solvent or mixture, Ethanol, RT): 1.7 mg/mL (≈ 5.26 mM)
- solubility ([1]; organic solvent or mixture, THF, RT): < 1 mg/mL
- solubility ([1]; Water, 60° C.): ~3 mg/mL (≈ 9.28 mM)
- solubility ([1]; Water, RT): < 1.3 mg/mL
- solubility at 1 day ([2]; 0.1 M aqueous NaOH, aqueous buffer, NaOH aq 0.1M, 24° C.): 2.8 mg/mL (≈ 8.66 mM)
- solubility at 1 day ([2]; 0.1 M aqueous NaOH, aqueous buffer, NaOH aq 0.1M, 60° C.): 8 mg/mL (≈ 24.7 mM)
- solubility at 1 day ([2]; DMSO/0.01 M aqueous NaOH 1:2 v/v, aqueous with cosolvent or surfactant or cyclodextrin, DMSO/NaOH aq 0.01M 1:2 v/v, 24° C.): 4.8 mg/mL (≈ 14.8 mM)
- solubility at 1 day ([2]; DMSO/0.01 M aqueous NaOH 1:2 v/v, aqueous with cosolvent or surfactant or cyclodextrin, DMSO/NaOH aq 0.01M 1:2 v/v, 60° C.): 19.6 mg/mL (≈ 60.6 mM)
- solubility at 1 day ([2]; DMSO/0.1 M aqueous NaOH 1:2 v/v, aqueous with cosolvent or surfactant or cyclodextrin, DMSO/NaOH aq 0.1M 1:2 v/v, 24° C.): 12.5 mg/mL (≈ 38.7 mM)
- solubility ([2]; NaOH aq 0.01M, 24° C.): 0.81 mg/mL (≈ 2.51 mM)
- solubility at 1 day ([2]; aqueous with cosolvent or surfactant or cyclodextrin, 1-Propanol/NaOH aq 0.01M 1:3 v/v, 24° C.): 6.8 mg/mL (≈ 21 mM)
- solubility at 1 day ([2]; aqueous with cosolvent or surfactant or cyclodextrin, 1-Propanol/NaOH aq 0.01M 1:3 v/v, 60° C.): 25.9 mg/mL (≈ 80.1 mM)
- solubility at 1 day ([2]; aqueous with cosolvent or surfactant or cyclodextrin, 1-Propanol/NaOH aq 0.1M 1:3 v/v, 24° C.): 16.6 mg/mL (≈ 51.3 mM)
- solubility at 1 day ([2]; aqueous with cosolvent or surfactant or cyclodextrin, 1-Propanol/water 1:2 v/v, 60° C.): 30.9 mg/mL (≈ 95.6 mM)
- solubility at 1 day ([2]; aqueous with cosolvent or surfactant or cyclodextrin, 2-Propanol/NaOH aq 0.01M 1:3 v/v, 24° C.): 5.2 mg/mL (≈ 16.1 mM)
- solubility at 1 day ([2]; aqueous with cosolvent or surfactant or cyclodextrin, 2-Propanol/NaOH aq 0.01M 1:3 v/v, 60° C.): 16.9 mg/mL (≈ 52.3 mM)
- solubility at 1 day ([2]; aqueous with cosolvent or surfactant or cyclodextrin, 2-Propanol/NaOH aq 0.1M 1:3 v/v, 24° C.): 14.1 mg/mL (≈ 43.6 mM)
- solubility at 1 day ([2]; aqueous with cosolvent or surfactant or cyclodextrin, 2-Propanol/water 1:2 v/v, 60° C.): 26.6 mg/mL (≈ 82.3 mM)
- solubility at 1 day ([2]; aqueous with cosolvent or surfactant or cyclodextrin, DMSO/water 1:1 v/v, 60° C.): 18.7 mg/mL (≈ 57.8 mM)
- solubility at 1 day ([2]; aqueous with cosolvent or surfactant or cyclodextrin, Ethanol/NaOH aq 0.01M 1:3 v/v, 24° C.): 3.3 mg/mL (≈ 10.2 mM)
- solubility at 1 day ([2]; aqueous with cosolvent or surfactant or cyclodextrin, Ethanol/NaOH aq 0.01M 1:3 v/v, 60° C.): 15.3 mg/mL (≈ 47.3 mM)
- solubility at 1 day ([2]; aqueous with cosolvent or surfactant or cyclodextrin, Ethanol/NaOH aq 0.1M 1:3 v/v, 24° C.): 9 mg/mL (≈ 27.8 mM)
- chemical stability of suspension [3]: chemically stable
